Where no end group is shown, it is not given here.

The target of the experiment is HLA-DQ8 (Homo sapiens, UniProt P01909+P01920, A209T/A45G/C70Q/D89A/DUP78-78/E183D/E77G/F237L/G63E/H199R/I129T/K197E/L178F/L74F/L98V/Q57E/Q76R/S185I/S97I/T217I/T49S/V73L/Y58L). In words: biochemical. Type of experiment: binding.
Chain of HLA-DQ8 (P01920 33-261 A45G/Y58L/E77G/D89A/H199R/T217I limits assumed, other chains not shown): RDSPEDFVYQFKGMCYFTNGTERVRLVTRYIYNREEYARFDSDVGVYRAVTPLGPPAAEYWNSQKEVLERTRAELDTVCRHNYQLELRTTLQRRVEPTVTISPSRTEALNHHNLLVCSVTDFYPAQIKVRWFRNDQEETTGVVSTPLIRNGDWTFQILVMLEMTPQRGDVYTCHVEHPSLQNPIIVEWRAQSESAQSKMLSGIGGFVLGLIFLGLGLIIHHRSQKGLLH

A word on the IC50: it is the concentration needed to halve the response being measured. Lower therefore signals greater potency in that assay. ADVEVYRAVTPLGPPD [DQB45–57]: the IC50 stood at 100 nM.

The values above are taken from paper PMC9610610 (Vaccines, 2022).
